In ChEMBL document CHEMBL1151584, “6-Substituted Quinazolinone Angiotensin II Receptor Antagonists” (Bioorg Med Chem Lett, 1994):

tested on: not listed separately; experiment: Percent blockade of the vasopressor response to A II (0.05 ug/kg i.v.) at a dose of 5 mg/kg p.o. in A II challenge model.; type: functional; conditions: route oral

| Structure (SMILES) | Activity |
| --- | --- |
| CCCCc1nc2ccc([C@H]3[C@@H]4C(=O)OC[C@@H]4ON3C)cc2c(=O)n1Cc1ccc(-c2ccccc2-c2nn[nH]n2)cc1 | 95% |

tested on: not listed separately; experiment: Percent blockade of the vasopressor response to A II (0.05 ug/kg i.v.) at a dose of 5 mg/kg p.o. in A II challenge model; type: functional; conditions: route oral

| Structure (SMILES) | Activity |
| --- | --- |
| CCCCc1nc2ccc([C@@H]3[C@@H]4C(=O)CC[C@@H]4ON3C)cc2c(=O)n1Cc1ccc(-c2ccccc2-c2nn[nH]n2)cc1 | 95% |

tested on: Rattus norvegicus; experiment: Decrease in Mean Arterial Blood Pressure(MABP) in Aorta […] rat model at a dose of 3 mg/kg p.o.; type: functional; conditions: route oral

| Structure (SMILES) | MABP |
| --- | --- |
| CCCCc1nc2ccc(C3CCC4CCCCC4O3)cc2c(=O)n1Cc1ccc(-c2ccccc2-c2nn[nH]n2)cc1 (stereo unspecified) | 15 mmHg |
| CCCCc1nc2ccc([C@H]3[C@@H]4C(=O)OC[C@@H]4ON3C)cc2c(=O)n1Cc1ccc(-c2ccccc2-c2nn[nH]n2)cc1 | 60 mmHg |
| CCCCc1nc2ccc([C@H]3OC[C@@H]4ON5[C@@H](CCC5(C)C)[C@@H]43)cc2c(=O)n1Cc1ccc(-c2ccccc2-c2nn[nH]n2)cc1 | 45 mmHg |

target: T1, Type-1 angiotensin II receptor (Bos taurus, UniProt P25104); experiment: In vitro binding affinity to angiotensin II receptor in bovine adrenal cortex; type: tissue-based; conditions: not given
T1 sequence (P25104 whole entry): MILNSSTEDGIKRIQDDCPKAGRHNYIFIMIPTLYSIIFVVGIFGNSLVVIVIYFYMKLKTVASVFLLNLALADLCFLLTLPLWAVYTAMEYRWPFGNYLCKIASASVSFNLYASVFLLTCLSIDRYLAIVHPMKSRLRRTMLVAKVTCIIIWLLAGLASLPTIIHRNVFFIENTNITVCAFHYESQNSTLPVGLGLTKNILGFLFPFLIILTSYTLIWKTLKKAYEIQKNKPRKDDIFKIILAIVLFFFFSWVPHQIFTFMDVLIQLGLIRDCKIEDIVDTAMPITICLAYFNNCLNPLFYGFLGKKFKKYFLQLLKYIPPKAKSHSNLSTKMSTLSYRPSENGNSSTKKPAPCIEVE

| IC50 | Structure (SMILES) |
| --- | --- |
| 16 nM | CCCCc1nc2ccc([C@@H]3[C@H]4CCCN3OC4)cc2c(=O)n1Cc1ccc(-c2ccccc2-c2nnn[nH]2)cc1 |
| 79 nM | CCCCc1nc2ccc([C@H]3[C@@H]4C(=O)CC[C@@H]4ON3Cc3ccccc3)cc2c(=O)n1Cc1ccc(-c2ccccc2-c2nnn[nH]2)cc1 |
| 105 nM | CCCCc1nc2ccc([C@@H]3C[C@H]4C(c5ccc(C)cc5)=NO[C@H]4O3)cc2c(=O)n1Cc1ccc(-c2ccccc2-c2nnn[nH]2)cc1 |
| 150 nM | CCCCc1nc2ccc([C@@H]3[C@@H]4C(=O)OC[C@@H]4ON3C)cc2c(=O)n1Cc1ccc(-c2ccccc2-c2nnn[nH]2)cc1 |
| 76 nM | CCCCc1nc2ccc([C@@H]3C[C@H]4C(c5ccccc5)=NO[C@H]4O3)cc2c(=O)n1Cc1ccc(-c2ccccc2-c2nn[nH]n2)cc1 |
| 42 nM | CCCCc1nc2ccc([C@@H]3C[C@H]4CCCCN3O4)cc2c(=O)n1Cc1ccc(-c2ccccc2-c2nnn[nH]2)cc1 |
| 61 nM | CCCCc1nc2ccc([C@@H]3C[C@H](CO)ON3C)cc2c(=O)n1Cc1ccc(-c2ccccc2-c2nn[nH]n2)cc1 |
| 900 nM | CCCCc1nc2ccc([C@H]3[C@@H]4C(=O)CCC[C@@H]4ON3C)cc2c(=O)n1Cc1ccc(-c2ccccc2-c2nn[nH]n2)cc1 |
| 32 nM | CCCCc1nc2ccc([C@@H]3C[C@H]4C5CCC(C)(C)N5O[C@H]4O3)cc2c(=O)n1Cc1ccc(-c2ccccc2-c2nn[nH]n2)cc1 (stereo partly specified) |
| 94 nM | CCCCc1nc2ccc([C@@H]3[C@@H]4C(=O)OC[C@@H]4ON3Cc3ccccc3)cc2c(=O)n1Cc1ccc(-c2ccccc2-c2nn[nH]n2)cc1 |
| 110 nM | CCCCc1nc2ccc(C3=NN[C@H]4C(=O)N(C)C(=O)[C@@H]34)cc2c(=O)n1Cc1ccc(-c2ccccc2-c2nn[nH]n2)cc1 |
| 53 nM | CCCCc1nc2ccc([C@H]3OC[C@H]4[C@@H]3ON3[C@@H]4CCC3(C)C)cc2c(=O)n1Cc1ccc(-c2ccccc2-c2nnn[nH]2)cc1 |
| 43 nM | CCCCc1nc2ccc([C@H]3C[C@H](CO)ON3C)cc2c(=O)n1Cc1ccc(-c2ccccc2-c2nnn[nH]2)cc1 |
| 42 nM | CCCCc1nc2ccc([C@@H]3[C@@H]4C(=O)CC[C@@H]4ON3C)cc2c(=O)n1Cc1ccc(-c2ccccc2-c2nn[nH]n2)cc1 |
| 68 nM | CCCCc1nc2ccc([C@H]3[C@@H]4C(=O)OC[C@@H]4ON3C)cc2c(=O)n1Cc1ccc(-c2ccccc2-c2nn[nH]n2)cc1 |
| 98 nM | CCCCc1nc2ccc([C@H]3[C@@H]4CCC[C@@H]4ON3C)cc2c(=O)n1Cc1ccc(-c2ccccc2-c2nnn[nH]2)cc1 |
| 180 nM | CCCCc1nc2ccc([C@H]3C4CCCCCCC4ON3C)cc2c(=O)n1Cc1ccc(-c2ccccc2-c2nn[nH]n2)cc1 (stereo partly specified) |
| 98 nM | CCCCc1nc2ccc([C@H]3[C@@H]4C(=O)CC[C@@H]4ON3C)cc2c(=O)n1Cc1ccc(-c2ccccc2-c2nnn[nH]2)cc1 |
| 177 nM | CCCCc1nc2ccc([C@H]3[C@@H]4C(=O)OC[C@@H]4ON3Cc3ccccc3)cc2c(=O)n1Cc1ccc(-c2ccccc2-c2nnn[nH]2)cc1 |
| 38 nM | CCCCc1nc2ccc([C@H]3OC[C@@H]4ON5[C@@H](CCC5(C)C)[C@@H]43)cc2c(=O)n1Cc1ccc(-c2ccccc2-c2nn[nH]n2)cc1 |
| 154 nM | CCCCc1nc2ccc([C@H]3C4CCCC4ON3C)cc2c(=O)n1Cc1ccc(-c2ccccc2-c2nn[nH]n2)cc1 (stereo partly specified) |
